Measurements published in ChEMBL document CHEMBL1201862, “PubChem BioAssay data set” (2004).
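Assay format: 96-well plates, 48-hour exposure. Here, GI50 denotes the concentration required for 50% inhibition of growth.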 Activity calls are given as the source filed them. No stated cut-off is given here; in the data, active = GI50 up to about 1.1 µM and inactive = higher.

Tests used:
Test in all cases: NCI-60 cell line screen, 48 h
NCI/ADR-RES = tested on: NCI/ADR-RES
ACHN = tested on: ACHN
EKVX = tested on: EKVX
MOLT-4 = tested on: MOLT-4
CAKI-1 = tested on: CAKI-1
SK-OV-3 = tested on: SK-OV-3
RXF 393 = tested on: RXF 393
MDA-MB-435 = tested on: MDA-MB-435
K562 = tested on: K562
MDA-MB-231 = tested on: MDA-MB-231
BT-549 = tested on: BT-549
A549 = tested on: A549
UACC-62 = tested on: UACC-62
786-0 = tested on: 786-0
HCC 2998 = tested on: HCC 2998
SF-539 = tested on: SF-539
HT-29 = tested on: HT-29
SW-620 = tested on: SW-620
Malme-3M = tested on: Malme-3M
RPMI-8226 = tested on: RPMI-8226

Measured: GI50

CCOC(=O)C(NC(=O)c1ccco1)(Nc1nc2ccc(OCC)cc2s1)C(F)(F)F (centres undefined)
inactive: NCI/ADR-RES 25.8 µM | ACHN 26.8 µM | EKVX 32.8 µM | MOLT-4 20.1 µM | CAKI-1 17.3 µM | SK-OV-3 52.8 µM | RXF 393 7.82 µM | MDA-MB-435 24.4 µM | K562 27.6 µM | MDA-MB-231 55.3 µM | BT-549 28.6 µM | A549 28.8 µM | UACC-62 35.6 µM | 786-0 21.7 µM | HCC 2998 33.5 µM | SF-539 43.2 µM | HT-29 32.3 µM | SW-620 61.5 µM | Malme-3M 37.2 µM

COc1ccc(Cn2c3c(cc(OC(C)=O)c2=O)Cc2ccccc2-3)cc1
inactive: NCI/ADR-RES 1.81 µM | ACHN 7.91 µM | EKVX 7.76 µM | MOLT-4 2.88 µM | CAKI-1 10.7 µM | SK-OV-3 20 µM | RXF 393 8.36 µM | MDA-MB-435 11 µM | K562 11.6 µM | MDA-MB-231 13.2 µM | BT-549 11.2 µM | A549 13.9 µM | UACC-62 9.1 µM | 786-0 5.33 µM | HCC 2998 3.33 µM | SF-539 8.02 µM | HT-29 10.7 µM | SW-620 6.64 µM | Malme-3M 10.9 µM

Clc1ccc(-c2ccc(-c3nnc(CCc4nnc(-c5ccc(-c6ccc(Cl)cc6)o5)o4)o3)o2)cc1
inactive: NCI/ADR-RES > 100 µM | ACHN > 55.6 µM | EKVX > 85.3 µM | MOLT-4 3.81 µM | CAKI-1 > 100 µM | SK-OV-3 > 45 µM | RXF 393 25.8 µM | MDA-MB-435 > 100 µM | K562 7.93 µM | MDA-MB-231 28.3 µM | BT-549 > 100 µM | A549 > 100 µM | UACC-62 > 100 µM | 786-0 > 43.3 µM | RPMI-8226 34 µM | HCC 2998 > 100 µM | SF-539 27.3 µM | HT-29 > 100 µM | SW-620 > 95.7 µM

CCON1CC(C(=O)OC)=C(O)C1=O
inactive: NCI/ADR-RES > 100 µM | ACHN > 100 µM | EKVX > 100 µM | MOLT-4 > 100 µM | CAKI-1 > 100 µM | SK-OV-3 > 100 µM | RXF 393 > 100 µM | MDA-MB-435 > 100 µM | K562 > 100 µM | MDA-MB-231 > 100 µM | BT-549 > 100 µM | A549 > 100 µM | UACC-62 > 100 µM | 786-0 > 100 µM | RPMI-8226 > 100 µM | HCC 2998 > 100 µM | HT-29 > 100 µM | SW-620 > 100 µM | Malme-3M > 100 µM

CC1=NN(c2nc(N)nc(CO)n2)C(C)(C)C1
inactive: NCI/ADR-RES > 100 µM | ACHN > 100 µM | EKVX > 100 µM | MOLT-4 > 100 µM | CAKI-1 > 100 µM | SK-OV-3 > 100 µM | RXF 393 > 100 µM | MDA-MB-435 > 100 µM | K562 > 100 µM | MDA-MB-231 > 100 µM | BT-549 > 100 µM | A549 > 100 µM | UACC-62 > 100 µM | 786-0 > 100 µM | RPMI-8226 > 100 µM | HCC 2998 > 100 µM | SF-539 > 100 µM | HT-29 > 100 µM | SW-620 > 100 µM

CC(=O)O[C@H]1C(=O)[C@@]2(C)[C@H]([C@H](OC(=O)c3ccccc3)[C@@]3(O)C[C@H](O)C(C)=C1C3(C)C)[C@]1(OC(C)=O)CO[C@@H]1C[C@@H]2O
inactive: NCI/ADR-RES > 100 µM | ACHN > 100 µM | EKVX > 100 µM | MOLT-4 73.3 µM | CAKI-1 > 100 µM | SK-OV-3 22.7 µM | RXF 393 37.1 µM | MDA-MB-435 11.9 µM | K562 55.8 µM | MDA-MB-231 45.1 µM | BT-549 32.4 µM | A549 73.3 µM | UACC-62 36 µM | 786-0 51.5 µM | RPMI-8226 13.7 µM | SF-539 32.1 µM | HT-29 23.3 µM | SW-620 14.6 µM | Malme-3M > 100 µM

Cc1cc2c(c(=O)n1C)SCC2
inactive: NCI/ADR-RES > 100 µM | ACHN > 100 µM | MOLT-4 > 100 µM | CAKI-1 > 100 µM | SK-OV-3 > 100 µM | RXF 393 > 100 µM | MDA-MB-435 > 100 µM | K562 > 100 µM | MDA-MB-231 > 100 µM | BT-549 > 100 µM | A549 > 100 µM | UACC-62 > 100 µM | 786-0 > 100 µM | RPMI-8226 > 100 µM | HCC 2998 > 100 µM | HT-29 > 100 µM | SW-620 > 100 µM | Malme-3M > 100 µM

CN(C)c1ccc(/C=c2/c3ccccc3n3c2cc(NC(=O)NCCC[N+](C)(C)C)[n+]3C)cc1
inactive: NCI/ADR-RES > 100 µM | ACHN > 100 µM | EKVX > 100 µM | MOLT-4 > 100 µM | CAKI-1 > 100 µM | SK-OV-3 > 100 µM | RXF 393 > 100 µM | MDA-MB-435 > 100 µM | K562 40.6 µM | MDA-MB-231 > 100 µM | BT-549 > 100 µM | A549 > 100 µM | UACC-62 > 100 µM | 786-0 > 100 µM | RPMI-8226 22.9 µM | SF-539 53.1 µM | HT-29 > 100 µM | SW-620 > 100 µM | Malme-3M > 100 µM

N=C(N)SCCSC(=N)N
inactive: NCI/ADR-RES > 100 µM | ACHN > 100 µM | EKVX 47 µM | MOLT-4 > 100 µM | CAKI-1 > 100 µM | SK-OV-3 > 100 µM | RXF 393 > 100 µM | MDA-MB-435 > 100 µM | K562 > 100 µM | MDA-MB-231 > 100 µM | BT-549 > 100 µM | A549 > 100 µM | UACC-62 > 100 µM | 786-0 > 100 µM | RPMI-8226 > 100 µM | HCC 2998 > 100 µM | HT-29 > 100 µM | SW-620 > 100 µM | Malme-3M > 100 µM

COc1ccc2c(c1)N(CCC1CCCCN1C)c1ccccc1S2 (centres undefined) [OXYRIDAZINE]
inactive: NCI/ADR-RES 12 µM | ACHN 13.8 µM | EKVX 19.4 µM | MOLT-4 4.85 µM | CAKI-1 9.48 µM | SK-OV-3 16.3 µM | RXF 393 7.18 µM | MDA-MB-435 7.62 µM | K562 4.37 µM | MDA-MB-231 11 µM | BT-549 16.1 µM | A549 14.1 µM | UACC-62 12.6 µM | 786-0 13.1 µM | RPMI-8226 12.4 µM | SF-539 23.1 µM | HT-29 5.12 µM | SW-620 14.7 µM | Malme-3M 18.2 µM
